According to patent publication EP3753932A1, “SUBSTITUTED BICYCLIC DERIVATIVES HAVING MULTIMODAL ACTIVITY AGAINST PAIN” (priority 2019, dated 2020):
Like-named read-outs stand apart in the source and are kept apart here.

How the values were obtained:
Human µ-opioid receptor = target: T1, Human µ-opioid receptor (Homo sapiens, UniProt P35372); experiment: Human µ-opioid receptor radioligand assay ([3H]-DAMGO); format: binding
T1 construct: expressed in transfected cells; host or cells: CHO-K1
Protocol: Human µ-opioid receptor radioligand assay
Transfected CHO-K1 cell membranes (20 µg) were incubated with [^3H]-DAMGO (1 nM) in assay buffer containing Tris-HCl 50 mM, MgCl2 5 mM at pH 7.4. NBS (non-specific binding) was measured by adding 10 µM Naloxone. The binding of the test compound was measured at either one concentration (% inhibition at 1 or 10 µM) or five different concentrations to determine affinity values (Ki). Plates were incubated at 27 °C for 60 min. After the incubation period, the reaction mixture was then transferred to MultiScreen HTS, FC plates (Millipore), filtered and plates were washed 3 times with ice-cold 10 mM Tris-HCl (pH 7.4). Filters were dried and counted at approximately 40% efficiency in a MicroBeta scintillation counter (Perkin-Elmer) using EcoScint liquid scintillation cocktail.

[1] = target: Human α2δ-1 subunit of Cav2.2 calcium channel (Homo sapiens, UniProt P54289); experiment: Human α2δ-1 subunit of Cav2.2 calcium channel assay ([3H]-Gabapentin binding)
Human α2δ-1 subunit of Cav2.2 calcium channel, sequence (P54289 25-1103): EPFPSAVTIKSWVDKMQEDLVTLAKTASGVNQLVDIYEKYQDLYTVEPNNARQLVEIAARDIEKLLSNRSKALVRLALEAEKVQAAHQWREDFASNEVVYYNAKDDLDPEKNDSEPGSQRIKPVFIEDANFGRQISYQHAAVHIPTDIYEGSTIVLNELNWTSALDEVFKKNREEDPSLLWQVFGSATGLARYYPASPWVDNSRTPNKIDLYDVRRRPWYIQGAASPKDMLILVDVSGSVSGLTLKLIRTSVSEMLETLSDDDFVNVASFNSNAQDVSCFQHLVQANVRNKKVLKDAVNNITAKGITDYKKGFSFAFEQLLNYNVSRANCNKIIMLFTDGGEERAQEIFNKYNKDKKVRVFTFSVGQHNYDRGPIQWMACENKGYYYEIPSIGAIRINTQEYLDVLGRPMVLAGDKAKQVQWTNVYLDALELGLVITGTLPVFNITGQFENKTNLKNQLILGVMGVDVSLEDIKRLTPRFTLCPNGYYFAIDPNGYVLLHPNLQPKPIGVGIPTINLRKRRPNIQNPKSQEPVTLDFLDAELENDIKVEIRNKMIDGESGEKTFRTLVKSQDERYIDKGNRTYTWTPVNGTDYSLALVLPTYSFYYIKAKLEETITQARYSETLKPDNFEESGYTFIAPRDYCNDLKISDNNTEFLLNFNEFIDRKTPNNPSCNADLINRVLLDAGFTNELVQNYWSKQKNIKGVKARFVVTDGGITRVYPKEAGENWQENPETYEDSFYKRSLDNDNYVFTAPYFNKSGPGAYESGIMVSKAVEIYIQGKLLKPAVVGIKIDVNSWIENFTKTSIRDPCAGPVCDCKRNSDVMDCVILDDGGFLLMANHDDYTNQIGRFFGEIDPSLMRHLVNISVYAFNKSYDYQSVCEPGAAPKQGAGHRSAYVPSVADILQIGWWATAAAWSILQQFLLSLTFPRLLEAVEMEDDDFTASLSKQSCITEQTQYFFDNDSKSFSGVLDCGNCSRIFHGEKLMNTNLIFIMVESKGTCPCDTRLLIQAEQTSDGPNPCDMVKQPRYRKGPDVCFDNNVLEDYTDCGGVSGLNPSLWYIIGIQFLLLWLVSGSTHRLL
Protocol: Human α2δ-1 subunit of Cav2.2 calcium channel assay
Human α2δ-1 enriched membranes (2.5 µg) were incubated with 15 nM of radiolabeled [3H]-Gabapentin in assay buffer containing Hepes-KOH 10mM, pH 7.4. NSB (non specific binding) was measured by adding 10 µM pregabalin. The binding of the test compound was measured at either one concentration (% inhibition at 1 or 10 µM) or five different concentrations to determine affinity values (Ki). After 60 min incubation at 27 °C, binding reaction was terminated by filtering through Multiscreen GF/C (Millipore) presoaked in 0.5 % polyethyleneimine in Vacuum Manifold Station, followed by 3 washes with ice-cold filtration buffer containing 50 mM Tris-HCl, pH 7.4. Filter plates were dried at 60 °C for 1 hour and 30 µl of scintillation cocktail were added to each well before radioactivity reading. Readings were performed in a Trilux 1450 Microbeta radioactive counter (Perkin Elmer).

[2] = human α2δ-1 enriched membranes, [3H]-Gabapentin 15 nM, read-out: α2δ-1 binding
[3] = transfected CHO-K1 cell membranes, [3H]-DAMGO 1 nM, read-out: µ-binding

T1 sequence (P35372 whole entry): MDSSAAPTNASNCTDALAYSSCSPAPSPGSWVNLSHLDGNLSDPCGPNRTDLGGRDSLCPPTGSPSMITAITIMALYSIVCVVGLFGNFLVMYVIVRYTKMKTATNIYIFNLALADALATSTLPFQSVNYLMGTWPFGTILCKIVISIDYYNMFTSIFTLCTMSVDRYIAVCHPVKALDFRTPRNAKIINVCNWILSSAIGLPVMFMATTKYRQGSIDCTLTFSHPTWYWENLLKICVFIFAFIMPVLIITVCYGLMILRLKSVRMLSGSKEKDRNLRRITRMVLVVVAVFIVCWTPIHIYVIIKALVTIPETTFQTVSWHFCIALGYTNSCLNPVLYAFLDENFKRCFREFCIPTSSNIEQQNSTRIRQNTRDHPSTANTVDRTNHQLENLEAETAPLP

SMILES	Ki (Human µ-opioid receptor) [µM]	Ki [1, 2] [µM]	Ki (Human µ-opioid receptor; [3]) [µM]	Ki [1] [µM]
CCCC(c1cnc2cc(N3CCC(c4cccc(O)c4)(N(C)C)CC3)ccc2c1)N1C[C@@H](C)N[C@@H](C)C1 (stereo partly drawn) [Example 2, 3-(4-(Dimethylamino)-1-(3-(1-((3S,5R)-3,5-dimethylpiperazin-1-yl)butyl)quinolin-7-yl)piperidin-4-yl)phenol]	< 0.1	0.5 to 5	–	–
CCC[C@@H](c1cnc2cc(CN3CCC(c4cccc(O)c4)(N(C)C)CC3)ccc2c1)N1C[C@@H](C)N[C@@H](C)C1 [Example 9, 3-(4-(Dimethylamino)-1-((3-((S)-1-((3S,5R)-3,5-dimethylpiperazin-1-yl)butyl)quinolin-7-yl)methyl)piperidin-4-yl)phenol]	< 0.1	0.5 to 5	–	–
CCC[C@H](c1cnc2ccc(CN3CCC(c4cccc(O)c4)(N(C)C)CC3)cc2n1)N1C[C@@H](C)N[C@@H](C)C1 [Example 38, 3-(4-(Dimethylamino)-1-((3-((R)-1-((3S,5R)-3,5-dimethylpiperazin-1-yl)butyl)quinoxalin-6-yl)methyl)piperidin-4-yl)phenol]	–	–	< 0.1	< 0.5
CCC[C@@H](c1nc2ccc(CN3CCC(c4cccc(O)c4)(N(C)C)CC3)cc2nc1CC)N1C[C@@H](C)N[C@@H](C)C1 [Example 42, 3-(4-(Dimethylamino)-1-((2-((S)-1-((3S,5R)-3,5-dimethylpiperazin-1-yl)butyl)-3-ethylquinoxalin-6-yl)methyl)piperidin-4-yl)phenol]	< 0.1	0.5 to 5	–	–
CCCC(c1cnc2ccc(N3CCC(c4cccc(O)c4)(N(C)C)CC3)cc2c1)N1C[C@@H](C)N[C@@H](C)C1 (stereo partly drawn) [Example 14, 3-(4-(Dimethylamino)-1-(3-(1-((3S,5R)-3,5-dimethylpiperazin-1-yl)butyl)quinolin-6-yl)piperidin-4-yl)phenol]	–	–	> 0.5	< 0.5
CCCC(c1ncc2cc(CN3CCC(c4cccc(O)c4)(N(C)C)CC3)ccc2n1)N1C[C@@H](C)N[C@@H](C)C1 (stereo partly drawn) [Example 28, 3-(4-(Dimethylamino)-1-((2-(1-((3S,5R)-3,5-dimethylpiperazin-1-yl)butyl)quinazolin-6-yl)methyl)piperidin-4-yl)phenol]	< 0.1	> 5	–	–
CCC[C@@H](c1ncc2cc(N3CCC(c4cccc(O)c4)(N(C)C)CC3)ccc2n1)N1C[C@@H](C)N[C@@H](C)C1 [Example 27, 3-(4-(Dimethylamino)-1-(2-((S)-1-((3S,5R)-3,5-dimethylpiperazin-1-yl)butyl)quinazolin-6-yl)piperidin-4-yl)phenol]	–	–	< 0.1	> 5
CCCC(c1ccc2cc(CN3CCC(c4cccc(O)c4)(N(C)C)CC3)ccc2n1)N1C[C@@H](C)N[C@@H](C)C1 (stereo partly drawn) [Example 7, 3-(4-(Dimethylamino)-1-((2-(1-((3S,5R)-3,5-dimethylpiperazin-1-yl)butyl)quinolin-6-yl)methyl)piperidin-4-yl)phenol]	–	–	< 0.1	< 0.5
CCC[C@@H](c1cnc2ccc(N3CCC(c4cccc(O)c4)(N(C)C)CC3)cc2n1)N1C[C@@H](C)N[C@@H](C)C1 [Example 35, 3-(4-(Dimethylamino)-1-(3-((S)-1-((3S,5R)-3,5-dimethylpiperazin-1-yl)butyl)quinoxalin-6-yl)piperidin-4-yl)phenol]	0.1 to 0.5	0.5 to 5	–	–
CCC[C@H](c1ncc2cc(N3CCC(c4cccc(O)c4)(N(C)C)CC3)ccc2n1)N1C[C@@H](C)N[C@@H](C)C1 [Example 26, 3-(4-(Dimethylamino)-1-(2-((R)-1-((3S,5R)-3,5-dimethylpiperazin-1-yl)butyl)quinazolin-6-yl)piperidin-4-yl)phenol]	–	–	< 0.1	> 5
CCC[C@@H](c1cnc2cc(N3CCC(c4cccc(O)c4)(N(C)C)CC3)ccc2c1)N1C[C@@H](C)N[C@@H](C)C1 [Example 5, 3-(4-(Dimethylamino)-1-(3-((S)-1-((3S,5R)-3,5-dimethylpiperazin-1-yl)butyl)quinolin-7-yl)piperidin-4-yl)phenol]	< 0.1	> 5	–	–
CCCC(c1nc2ccc(CN3CCC(c4cccc(O)c4)(N(C)C)CC3)cc2nc1CC)N1C[C@@H](C)N[C@@H](C)C1 (stereo partly drawn) [Example 40, 3-(4-(Dimethylamino)-1-((2-(1-((3S,5R)-3,5-dimethylpiperazin-1-yl)butyl)-3-ethylquinoxalin-6-yl)methyl)piperidin-4-yl)phenol]	–	–	< 0.1	< 0.5
CCCC(c1cc2cc(CN3CCC(c4cccc(O)c4)(N(C)C)CC3)ccc2nc1CC)N1C[C@@H](C)N[C@@H](C)C1 (stereo partly drawn) [Example 22, 3-(4-(Dimethylamino)-1-((3-(1-((3S,5R)-3,5-dimethylpiperazin-1-yl)butyl)-2-ethylquinolin-6-yl)methyl)piperidin-4-yl)phenol]	< 0.1	0.5 to 5	–	–
CCC[C@H](c1cnc2cc(CN3CCC(c4ccccc4)(N(C)C)CC3)ccc2c1)N1C[C@@H](C)N[C@@H](C)C1 [Example 12, 1-((3-((R)-1-((3S,5R)-3,5-Dimethylpiperazin-1-yl)butyl)quinolin-7-yl)methyl)-N,N-dimethyl-4-phenylpiperidin-4-amine]	–	–	0.1 to 0.5	< 0.5
CCC[C@H](c1ncc2cc(CN3CCC(c4cccc(O)c4)(N(C)C)CC3)ccc2n1)N1C[C@@H](C)N[C@@H](C)C1 [Example 29, 3-(4-(Dimethylamino)-1-((2-((R)-1-((3S,5R)-3,5-dimethylpiperazin-1-yl)butyl)quinazolin-6-yl)methyl)piperidin-4-yl)phenol]	< 0.1	0.5 to 5	–	–
CCCC(c1cc2ccc(N3CCC(c4cccc(O)c4)(N(C)C)CC3)cc2nc1CC)N1C[C@@H](C)N[C@@H](C)C1 (stereo partly drawn) [Example 20, 3-(4-(Dimethylamino)-1-(3-(1-((3S,5R)-3,5-dimethylpiperazin-1-yl)butyl)-2-ethylquinolin-7-yl)piperidin-4-yl)phenol]	–	–	< 0.1	< 0.5
CCCC(c1cnc2ccc(N3CCC(c4cccc(O)c4)(N(C)C)CC3)cc2n1)N1C[C@@H](C)N[C@@H](C)C1 (stereo partly drawn) [Example 33, 3-(4-(Dimethylamino)-1-(3-(1-((3S,5R)-3,5-dimethylpiperazin-1-yl)butyl)quinoxalin-6-yl)piperidin-4-yl)phenol]	–	–	< 0.1	< 0.5
